Source: patent US20100029604A1, “ANTIBACTERIAL COMBINATION AND ITS USE” (priority 2007, published 2010)
Values after ≈ are worked out from the molar mass of the structure shown. Where two headings read alike, the source gives them in different places.

Assays:
[1] = tested on: Pseudomonas aeruginosa NPS-1; test: MIC, characterised β-lactamase producing strain (Example 5, Tables 5-7); format: cell-based
Protocol: (§1) The MIC experiments were performed in duplicate in 96-well microtiter plates using CAMHB. Serial twofold dilutions of each antibiotic either alone or in combination with constant concentration ratio of a β-lactamase inhibitor (2:1) were prepared in CAMHB. The bacterial suspension with final inoculum 10^5 CFU/mL was transferred to the test medium containing the antibacterial substances. In each well of a 96-well microtiter plate was combined 50 μL of bacterial inoculum, 50 μL of antibiotic dilutions (or media for determination of the MIC of the antibiotic in the absence of test compound). Each plate included 4 wells with no bacterial inoculum (negative control) and 4 wells with no test compound and no antibiotic (positive control). The plates were incubated at 35° C. for 24 h. Purity check and colony counts on each inoculum suspension was performed to ensure that the final inoculum concentration routinely obtained closely approximates 5×10^5 CFU/mL. In addition the assay is routinely monitored by testing standard antibiotics and ensuring that MIC values are within the recommended ranges for the respective strains.
(§2) This test permits comparisons to be made between bacterial growth in the presence of antibiotic alone and bacterial growth in the presence of both an antibiotic and a novel (test) compound.

Escherichia coli OXA-4 = test: as above; format: cell-based
Protocol: as §1, §2

Escherichia coli TEM-34 = test: as above; format: cell-based
Protocol: as §1, §2

Salmonella spp. DHA-1 = test: as above; format: cell-based
Protocol: as §1, §2

Escherichia coli TEM-32 = test: as above; format: cell-based
Protocol: as §1, §2

[2] = tested on: Klebsiella pneumoniae TEM-30; test: as above; format: cell-based
Protocol: as §1, §2

[3] = tested on: Klebsiella pneumoniae TEM-1, SHV-5; test: as above; format: cell-based
Protocol: as §1, §2

[4] = tested on: Aeromonas hydrophila AER-1; test: as above; format: cell-based
Protocol: as §1, §2

Escherichia coli SHV-2 = test: as above; format: cell-based
Protocol: as §1, with “Serial twofold dilutions of each antibiotic either alone or in combination with constant concentration ratio of a β-lactamase inhibitor (2:1) were prepared in CAMHB.” left out
as §2

Escherichia coli TEM-5 = test: as above; format: cell-based
Protocol: as §1, with “Serial twofold dilutions of each antibiotic either alone or in combination with constant concentration ratio of a β-lactamase inhibitor (2:1) were prepared in CAMHB.” left out
as §2

Escherichia coli TEM-50 = test: as above; format: cell-based
Protocol: as §1, with “Serial twofold dilutions of each antibiotic either alone or in combination with constant concentration ratio of a β-lactamase inhibitor (2:1) were prepared in CAMHB.” left out
as §2

Escherichia coli TEM-20 = test: as above; format: cell-based
Protocol: as §1, with “Serial twofold dilutions of each antibiotic either alone or in combination with constant concentration ratio of a β-lactamase inhibitor (2:1) were prepared in CAMHB.” left out
as §2

[5] = tested on: Klebsiella pneumoniae LAT-1; test: as above; format: cell-based
Protocol: as §1, with “Serial twofold dilutions of each antibiotic either alone or in combination with constant concentration ratio of a β-lactamase inhibitor (2:1) were prepared in CAMHB.” left out
as §2

[6] = tested on: Klebsiella pneumoniae TEM-31; test: as above; format: cell-based
Protocol: as §1, with “Serial twofold dilutions of each antibiotic either alone or in combination with constant concentration ratio of a β-lactamase inhibitor (2:1) were prepared in CAMHB.” left out
as §2

[7] = tested on: Pseudomonas aeruginosa OXA-10; test: as above; format: cell-based
Protocol: as §1, with “Serial twofold dilutions of each antibiotic either alone or in combination with constant concentration ratio of a β-lactamase inhibitor (2:1) were prepared in CAMHB.” left out
as §2

[8] = tested on: Pseudomonas aeruginosa PSE-1; test: as above; format: cell-based
Protocol: as §1, with “Serial twofold dilutions of each antibiotic either alone or in combination with constant concentration ratio of a β-lactamase inhibitor (2:1) were prepared in CAMHB.” left out
as §2

[9] = tested on: Klebsiella pneumoniae TEM-1, SHV; test: as above; format: cell-based
Protocol: as §1, with “Serial twofold dilutions of each antibiotic either alone or in combination with constant concentration ratio of a β-lactamase inhibitor (2:1) were prepared in CAMHB.” left out
as §2

[10] = tested on: Pseudomonas aeruginosa LCR-1; test: as above; format: cell-based
Protocol: as §1, with “Serial twofold dilutions of each antibiotic either alone or in combination with constant concentration ratio of a β-lactamase inhibitor (2:1) were prepared in CAMHB.” left out
as §2

Proteus mirabilis TEM-52 = test: as above; format: cell-based
Protocol: as §1, with “Serial twofold dilutions of each antibiotic either alone or in combination with constant concentration ratio of a β-lactamase inhibitor (2:1) were prepared in CAMHB.” left out
as §2

Escherichia coli TEM-6 = test: as above; format: cell-based
Protocol: as §1, with “Serial twofold dilutions of each antibiotic either alone or in combination with constant concentration ratio of a β-lactamase inhibitor (2:1) were prepared in CAMHB.” left out
as §2

[11] = tested on: Klebsiella oxytoca ATCC 51983; test: MIC broth microdilution (Example 2); conditions: ATCC51983
[12] = tested on: Klebsiella pneumoniae TEM-1 hyperproduced; format: cell-based
Protocol: as §1, with “Serial twofold dilutions of each antibiotic either alone or in combination with constant concentration ratio of a β-lactamase inhibitor (2:1) were prepared in CAMHB.” left out
as §2

[13] = tested on: Klebsiella pneumoniae TEM-10; test: MIC, characterised β-lactamase producing strain (Example 5, Tables 5-7); format: cell-based
Protocol: as §1, with “Serial twofold dilutions of each antibiotic either alone or in combination with constant concentration ratio of a β-lactamase inhibitor (2:1) were prepared in CAMHB.” left out
as §2

[14] = tested on: Klebsiella pneumoniae CMY-2; test: as above; format: cell-based
Protocol: as §1, with “Serial twofold dilutions of each antibiotic either alone or in combination with constant concentration ratio of a β-lactamase inhibitor (2:1) were prepared in CAMHB.” left out
as §2

Escherichia coli FOX-2 = test: as above; format: cell-based
Protocol: as §1, with “Serial twofold dilutions of each antibiotic either alone or in combination with constant concentration ratio of a β-lactamase inhibitor (2:1) were prepared in CAMHB.” left out
as §2

[15] = Table 6, LK-157 at constant 4 μg/mL in combination
[16] = Table 7, combination at constant concentration ratio (2:1)

## CO/N=C(\C(=O)N[C@@H]1C(=O)N2C(C(=O)[O-])=C(C[N+]3(C)CCCC3)CS[C@H]12)c1csc(N)n1 [cefepime]
[1]; Pseudomonas aeruginosa NPS-1, functional group 2a, LK-157 in combination constant 4 μg/mL
  MIC: 8 µg/mL
Escherichia coli OXA-4; Escherichia coli OXA-4, functional group 2d, LK-157 in combination constant 4 μg/mL
  MIC: 0.5 µg/mL
Escherichia coli TEM-34; Escherichia coli TEM-34, functional group 2br, LK-157 in combination constant 4 μg/mL
  MIC: 0.063 µg/mL
Salmonella spp. DHA-1; Salmonella spp. DHA-1, functional group 1, LK-157 in combination constant 4 μg/mL
  MIC: 1 µg/mL
Escherichia coli TEM-32; Escherichia coli TEM-32, functional group 2br, LK-157 in combination constant 4 μg/mL
  MIC: 0.125 µg/mL
[2]; Klebsiella pneumoniae TEM-30, functional group 2br, LK-157 in combination constant 4 μg/mL
  MIC: 0.125 µg/mL
[3]; Klebsiella pneumoniae TEM-1, SHV-5, functional group 2b, 2e, LK-157 in combination constant 4 μg/mL
  MIC: 16 µg/mL
[4]; Aeromonas hydrophila AER-1, functional group 2c, LK-157 in combination constant 4 μg/mL
  MIC: 0.5 µg/mL
Escherichia coli SHV-2; Escherichia coli SHV-2, functional group 2be, LK-157 in combination constant 4 μg/mL
  MIC: 2 µg/mL
Escherichia coli TEM-5; Escherichia coli TEM-5, functional group 2be, LK-157 in combination constant 4 μg/mL
  MIC: 0.5 µg/mL
Escherichia coli TEM-50; Escherichia coli TEM-50, functional group 2be, LK-157 in combination constant 4 μg/mL
  MIC: 32 µg/mL
Escherichia coli TEM-20; Escherichia coli TEM-20, functional group 2be, LK-157 in combination constant 4 μg/mL
  MIC: 4 µg/mL
[5]; Klebsiella pneumoniae LAT-1, functional group 1, LK-157 in combination constant 4 μg/mL
  MIC: 0.125 µg/mL
[6]; Klebsiella pneumoniae TEM-31, functional group 2br, LK-157 in combination constant 4 μg/mL
  MIC: 0.125 µg/mL
[7]; Pseudomonas aeruginosa OXA-10, functional group 2d, LK-157 in combination constant 4 μg/mL
  MIC: 64 µg/mL
[8]; Pseudomonas aeruginosa PSE-1, functional group 2c, LK-157 in combination constant 4 μg/mL
  MIC: 32 µg/mL
[9]; functional group 2b, unknown, LK-157 in combination constant 4 μg/mL
  MIC: 4 µg/mL
[10]; Pseudomonas aeruginosa LCR-1, functional group 2d, LK-157 in combination constant 4 μg/mL
  MIC: 128 µg/mL
Proteus mirabilis TEM-52; Proteus mirabilis TEM-52, functional group 2be, LK-157 in combination constant 4 μg/mL
  MIC: 16 µg/mL
Escherichia coli TEM-6; Escherichia coli TEM-6, functional group 2be, LK-157 in combination constant 4 μg/mL
  MIC: 4 µg/mL

## CO/N=C(\C(=O)N[C@@H]1C(=O)N2C(C(=O)O)=C(COC(C)=O)CS[C@H]12)c1csc(N)n1 [cefotaxime]
[1]; Table 6, Pseudomonas aeruginosa NPS-1, LK-157 at constant 4 μg/mL in combination
  MIC: 16 µg/mL
Escherichia coli TEM-34; Table 6, Escherichia coli TEM-34, LK-157 at constant 4 μg/mL in combination
  MIC: 0.031 µg/mL
Salmonella spp. DHA-1; Table 6, Salmonella spp. DHA-1, LK-157 at constant 4 μg/mL in combination
  MIC: 32 µg/mL
[2]; Table 6, Klebsiella pneumoniae TEM-30, LK-157 at constant 4 μg/mL in combination
  MIC: 0.031 µg/mL
[3]; Table 6, Klebsiella pneumoniae TEM-1, SHV-5, LK-157 at constant 4 μg/mL in combination
  MIC: 32 µg/mL
[11]
  MIC: 2 to 8 µg/mL (≈ 4.39 to 17.6 µM)
[12]; [15]
  MIC: 0.063 µg/mL
Escherichia coli SHV-2; Table 6, Escherichia coli SHV-2, LK-157 at constant 4 μg/mL in combination
  MIC: 4 µg/mL
Escherichia coli TEM-5; Table 6, Escherichia coli TEM-5, LK-157 at constant 4 μg/mL in combination
  MIC: 0.063 µg/mL
Escherichia coli TEM-50; Table 6, Escherichia coli TEM-50, LK-157 at constant 4 μg/mL in combination
  MIC: 8 µg/mL
[13]; [15]
  MIC: 0.5 µg/mL
Escherichia coli TEM-20; Table 6, Escherichia coli TEM-20, LK-157 at constant 4 μg/mL in combination
  MIC: 2 µg/mL
[5]; Table 6, Klebsiella pneumoniae LAT-1, LK-157 at constant 4 μg/mL in combination
  MIC: 4 µg/mL
[6]; Table 6, Klebsiella pneumoniae TEM-31, LK-157 at constant 4 μg/mL in combination
  MIC: 0.063 µg/mL
[7]; Table 6, Pseudomonas aeruginosa OXA-10, LK-157 at constant 4 μg/mL in combination
  MIC: 64 µg/mL
[14]; [15]
  MIC: 16 µg/mL
[8]; Table 6, Pseudomonas aeruginosa PSE-1, LK-157 at constant 4 μg/mL in combination
  MIC: 16 µg/mL
Escherichia coli FOX-2; [15]
  MIC: 64 µg/mL
[9]; [15]
  MIC: 4 µg/mL
[10]; Table 6, Pseudomonas aeruginosa LCR-1, LK-157 at constant 4 μg/mL in combination
  MIC: 64 µg/mL
Proteus mirabilis TEM-52; Table 6, Proteus mirabilis TEM-52, LK-157 at constant 4 μg/mL in combination
  MIC: 16 µg/mL
Escherichia coli TEM-6; Table 6, Escherichia coli TEM-6, LK-157 at constant 4 μg/mL in combination
  MIC: 0.5 µg/mL

## CC(C)(O/N=C(\C(=O)N[C@@H]1C(=O)N2C(C(=O)[O-])=C(C[n+]3ccccc3)CS[C@H]12)c1csc(N)n1)C(=O)O [ceftazidime]
Escherichia coli OXA-4; Table 7, Escherichia coli OXA-4, combination at constant concentration ratio (2:1)
  MIC: 0.5 µg/mL
Escherichia coli TEM-32; Table 7, Escherichia coli TEM-32, combination at constant concentration ratio (2:1)
  MIC: 0.25 µg/mL
[4]; Table 7, Aeromonas hydrophila AER-1, combination at constant concentration ratio (2:1)
  MIC: 0.25 µg/mL
[11]
  MIC: 32 to 64 µg/mL (≈ 58.5 to 117 µM)
[12]; [16]
  MIC: 0.25 µg/mL
Escherichia coli SHV-2; Table 7, Escherichia coli SHV-2, combination at constant concentration ratio (2:1)
  MIC: 2 µg/mL
Escherichia coli TEM-5; Table 7, Escherichia coli TEM-5, combination at constant concentration ratio (2:1)
  MIC: 4 µg/mL
Escherichia coli TEM-50; Table 7, Escherichia coli TEM-50, combination at constant concentration ratio (2:1)
  MIC: 8 µg/mL
[13]; [16]
  MIC: ≧128 μg/mL
Escherichia coli TEM-20; Table 7, Escherichia coli TEM-20, combination at constant concentration ratio (2:1)
  MIC: 2 µg/mL
[5]; Table 7, Klebsiella pneumoniae LAT-1, combination at constant concentration ratio (2:1)
  MIC: 8 µg/mL
[6]; Table 7, Klebsiella pneumoniae TEM-31, combination at constant concentration ratio (2:1)
  MIC: 0.25 µg/mL
[7]; Table 7, Pseudomonas aeruginosa OXA-10, combination at constant concentration ratio (2:1)
  MIC: 4 µg/mL
[14]; [16]
  MIC: 64 µg/mL
[8]; Table 7, Pseudomonas aeruginosa PSE-1, combination at constant concentration ratio (2:1)
  MIC: 2 µg/mL
Escherichia coli FOX-2; [16]
  MIC: ≧128 μg/mL
[9]; [16]
  MIC: 8 µg/mL
[10]; Table 7, Pseudomonas aeruginosa LCR-1, combination at constant concentration ratio (2:1)
  MIC: 4 µg/mL
Proteus mirabilis TEM-52; Table 7, Proteus mirabilis TEM-52, combination at constant concentration ratio (2:1)
  MIC: 4 µg/mL
Escherichia coli TEM-6; Table 7, Escherichia coli TEM-6, combination at constant concentration ratio (2:1)
  MIC: ≧128 μg/mL
